From the supplement of paper PMC10307832

Key:
Test in all cases: relative viability (nuclei count vs DMSO), 5 days (fraction); higher = more cells survive
[1] = compound: CN(C)C(=N)NC(=N)N [Metformin] + O=C(CCCCCCC(=O)Nc1ccccc1)NO [Vorinostat] (partner 1 µM)
Outline: (§1)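 Cells from lung cancer lines were seeded into 1536-well plates and, one day later, dosed by pin tool. Treatments were either a single drug or a fixed dose of an anchor drug with five library-drug doses (not always all listed) in √10 steps. After 5 days, nuclei were stained in a one-step fixation (final 0.05% Triton X-100, 1% formaldehyde, 1 ug/ml Hoechst) and counted on 4× images, and relative viability is the treated-to-vehicle nuclei ratio, as the median of duplicate plates.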

[2] = compound: N#CC1(c2ccc(NC(=O)c3cccnc3NCc3ccncc3)cc2)CCCC1 [Apatinib] + NC(=O)Nc1cc(-c2cccc(F)c2)sc1C(=O)N[C@H]1CCCNC1 [AZD7762] (partner 0.2 µM)
Outline: as §1

[3] = compound: N#CC1(c2ccc(NC(=O)c3cccnc3NCc3ccncc3)cc2)CCCC1 [Apatinib] + N=C(N)NC(=N)NCCc1ccccc1 [Phenformin] (partner 250 µM)
Outline: as §1

[4] = compound: CN(C)C(=N)NC(=N)N [Metformin] + CC(C)C[C@H](NC(=O)[C@H](Cc1ccccc1)NC(=O)c1cnccn1)B(O)O [Bortezomib] (partner 0.002 µM)
Outline: as §1

NCI-H23
relative viability ([1]; first compound 10 µM): 0.618
relative viability ([1]; first compound 31.62 µM): 0.574
relative viability ([1]; first compound 100 µM): 0.653
relative viability ([1]; first compound 316.23 µM): 0.561
relative viability ([1]; first compound 1000 µM): 0.848
relative viability ([2]; first compound 0.08 µM): 0.275
relative viability ([2]; first compound 0.253 µM): 0.193
relative viability ([2]; first compound 0.8 µM): 0.21
relative viability ([2]; first compound 2.53 µM): 0.134
relative viability ([2]; first compound 8 µM): 0.108
relative viability ([3]; first compound 0.08 µM): 0.851
relative viability ([3]; first compound 0.253 µM): 0.733
relative viability ([3]; first compound 0.8 µM): 0.735
relative viability ([3]; first compound 2.53 µM): 0.717
relative viability ([3]; first compound 8 µM): 0.705
relative viability ([4]; first compound 10 µM): 1.07
relative viability ([4]; first compound 31.62 µM): 1.04
relative viability ([4]; first compound 100 µM): 1.04
relative viability ([4]; first compound 316.23 µM): 1.11
relative viability ([4]; first compound 1000 µM): 1.28
